One assay addresses Cholinesterase (Homo sapiens, UniProt P06276). The assay is described as follows: Inhibition of human serum BuChE using butyrylthiocholine iodide as substrate at 10 uM incubated for 10 mins followed by substrate addition by DTNB reagent based Ellman's method relative to control.
In another assay the target is Acetylcholinesterase (Homo sapiens, UniProt P22303). Briefly: Inhibition of human erythrocytes AChE measured after 10 mins by Ellman's method. For orientation: DTNB colorimetry detects thiols as they appear.
Sequence of Acetylcholinesterase (P22303 whole entry): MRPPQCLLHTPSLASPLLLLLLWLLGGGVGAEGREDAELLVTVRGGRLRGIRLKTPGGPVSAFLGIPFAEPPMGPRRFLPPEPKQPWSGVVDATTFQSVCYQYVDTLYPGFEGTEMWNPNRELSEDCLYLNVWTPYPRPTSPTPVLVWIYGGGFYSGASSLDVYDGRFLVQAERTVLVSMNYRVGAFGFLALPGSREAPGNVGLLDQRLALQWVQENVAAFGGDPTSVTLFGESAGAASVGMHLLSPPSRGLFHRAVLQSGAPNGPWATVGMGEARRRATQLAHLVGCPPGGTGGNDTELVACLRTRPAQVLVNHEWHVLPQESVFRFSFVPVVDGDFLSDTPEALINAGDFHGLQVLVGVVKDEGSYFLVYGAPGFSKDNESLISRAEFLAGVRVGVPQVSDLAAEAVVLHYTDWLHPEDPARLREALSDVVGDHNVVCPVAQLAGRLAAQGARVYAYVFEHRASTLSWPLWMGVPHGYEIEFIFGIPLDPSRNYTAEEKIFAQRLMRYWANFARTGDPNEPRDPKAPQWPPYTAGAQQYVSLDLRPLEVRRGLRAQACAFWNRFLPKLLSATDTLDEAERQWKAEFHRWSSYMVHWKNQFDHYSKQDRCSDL

Sequence of Cholinesterase (P06276 whole entry): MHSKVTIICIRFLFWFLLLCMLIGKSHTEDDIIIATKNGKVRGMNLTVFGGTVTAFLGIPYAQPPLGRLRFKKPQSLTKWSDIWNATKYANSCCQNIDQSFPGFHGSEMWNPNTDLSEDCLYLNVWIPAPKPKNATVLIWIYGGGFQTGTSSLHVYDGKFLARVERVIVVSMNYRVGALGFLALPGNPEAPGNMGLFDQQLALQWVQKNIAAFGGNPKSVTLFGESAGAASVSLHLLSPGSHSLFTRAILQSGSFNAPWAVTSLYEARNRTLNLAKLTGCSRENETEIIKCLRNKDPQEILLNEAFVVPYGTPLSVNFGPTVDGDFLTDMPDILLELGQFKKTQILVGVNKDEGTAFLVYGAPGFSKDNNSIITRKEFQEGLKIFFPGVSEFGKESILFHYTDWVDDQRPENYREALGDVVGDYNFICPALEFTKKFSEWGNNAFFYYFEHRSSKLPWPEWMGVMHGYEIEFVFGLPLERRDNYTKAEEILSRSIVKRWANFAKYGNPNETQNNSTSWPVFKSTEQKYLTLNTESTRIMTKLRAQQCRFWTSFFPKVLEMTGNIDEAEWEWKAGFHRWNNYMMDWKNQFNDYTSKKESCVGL

For orientation: inhibition means the change of the read-out against control, counted positive when it falls. Low values mean a weak effect, high ones a strong effect. On Cholinesterase, `COc1ccc2c3c1O[C@H]1C[C@@H](OC(=O)NC4CCN(Cc5ccc(Cl)cc5)CC4)C=C[C@@]31CCN(C)C2` gave an inhibition of 30.2%.

Consider `COc1ccc(CNC(=O)O[C@H]2C=C[C@@]34CCN(C)Cc5ccc(OC)c(c53)O[C@H]4C2)cc1`, for which the inhibition at Cholinesterase worked out at 2.97%.

The IC50 is the concentration that inhibits the measured activity by half. Lower therefore signals higher potency. At Acetylcholinesterase, `COc1ccc2c3c1O[C@H]1C[C@@H](OC(=O)NC4CCN(Cc5ccccc5F)CC4)C=C[C@@]31CCN(C)C2` came in with an IC50 of 406 nM. At Cholinesterase, this molecule had an inhibition of 21.6%.

In the case of `COc1cc(CN2CCC(NC(=O)O[C@H]3C=C[C@@]45CCN(C)Cc6ccc(OC)c(c64)O[C@H]5C3)CC2)cc(OC)c1`, on Cholinesterase, the inhibition turned out to be 12.9%.

In turn, `COc1ccc2c3c1O[C@H]1C[C@@H](OC(=O)NC4CCN(Cc5ccc([N+](=O)[O-])cc5)CC4)C=C[C@@]31CCN(C)C2` registered an inhibition at Cholinesterase of 24.6%.

As for `COc1ccc2c3c1O[C@H]1C[C@@H](OC(=O)NCc4ccc(OC(F)(F)F)cc4)C=C[C@@]31CCN(C)C2`, the inhibition against Cholinesterase was 18.2%.

`COc1ccc2c3c1O[C@H]1C[C@@H](OC(=O)NCc4ccc5ccccc5c4)C=C[C@@]31CCN(C)C2` returned an inhibition on Cholinesterase of 6.44%.

Molecule `COc1ccc2c3c1O[C@H]1C[C@@H](OC(=O)NCc4ccc(F)cc4)C=C[C@@]31CCN(C)C2` showed an inhibition on Cholinesterase of 12.7%.

`COc1ccc2c3c1O[C@H]1C[C@@H](OC(=O)NC4CCN(Cc5ccc(OC(F)(F)F)cc5)CC4)C=C[C@@]31CCN(C)C2` came in with an IC50 against Acetylcholinesterase of 451 nM. The molecule further registered an inhibition at Cholinesterase of 26%.

For `COc1ccc2c3c1O[C@H]1C[C@@H](OC(=O)NCc4cccc(F)c4)C=C[C@@]31CCN(C)C2`, at Cholinesterase, the inhibition was 14.6%.

At Cholinesterase, `COc1ccc2c3c1O[C@H]1C[C@@H](OC(=O)NCc4cc(F)cc(F)c4)C=C[C@@]31CCN(C)C2` came in with an inhibition of 4.56%.

`COc1ccc2c3c1O[C@H]1C[C@@H](OC(=O)NCc4ccccc4)C=C[C@@]31CCN(C)C2` registered an inhibition on Cholinesterase of 10.4%.

Turning to `COc1ccc2c3c1O[C@H]1C[C@@H](OC(=O)NCc4ccc(F)cc4F)C=C[C@@]31CCN(C)C2`, at Cholinesterase, the inhibition came out at 13.5%.

Regarding `COc1ccc2c3c1O[C@H]1C[C@@H](OC(=O)NCc4ccccc4F)C=C[C@@]31CCN(C)C2`, the inhibition at Cholinesterase worked out at 18.4%.

For `COc1ccc2c3c1O[C@H]1C[C@@H](OC(=O)NCc4ccc(C)cc4)C=C[C@@]31CCN(C)C2`, at Cholinesterase, the inhibition amounted to 4.99%.

With `COc1ccc2c3c1O[C@H]1C[C@@H](OC(=O)NCc4ccccc4C)C=C[C@@]31CCN(C)C2`, the inhibition on Cholinesterase is 9.54%.

Turning to `COc1ccc2c3c1O[C@H]1C[C@@H](OC(=O)NCc4ccc5[nH]ccc5c4)C=C[C@@]31CCN(C)C2`, the inhibition against Cholinesterase turned out to be 3.54%.

Molecule `COc1ccc2c3c1O[C@H]1C[C@@H](OC(=O)NC4CCN(Cc5cccc(C(F)(F)F)c5)CC4)C=C[C@@]31CCN(C)C2` had an IC50 at Acetylcholinesterase of 601 nM. In addition, at Cholinesterase, the inhibition amounted to 25.1%.

On to `COc1ccc2c3c1O[C@H]1C[C@@H](OC(=O)NC4CCN(Cc5ccc(C#N)cc5)CC4)C=C[C@@]31CCN(C)C2`, for which the inhibition against Cholinesterase amounted to 21.3%.

Molecule `COc1ccc2c3c1O[C@H]1C[C@@H](OC(=O)NC4CCN(Cc5ccc(F)cc5)CC4)C=C[C@@]31CCN(C)C2` gave an IC50 against Acetylcholinesterase of 399 nM. Moreover, the inhibition on Cholinesterase is 21%.

`COc1ccc2c3c1O[C@H]1C[C@@H](OC(=O)NC4CCN(Cc5ccc(F)cc5F)CC4)C=C[C@@]31CCN(C)C2` came in with an IC50 at Acetylcholinesterase of 1200 nM. At Cholinesterase, the inhibition stood at 19.9%.

On to `COc1ccc2c3c1O[C@H]1C[C@@H](OC(=O)NCc4ccc([N+](=O)[O-])cc4)C=C[C@@]31CCN(C)C2`, for which the inhibition against Cholinesterase turned out to be 6.23%.

`COc1ccc2c3c1O[C@H]1C[C@@H](OC(=O)NC4CCN(Cc5ccc(C)cc5)CC4)C=C[C@@]31CCN(C)C2` returned an inhibition against Cholinesterase of 28.7%.

On to `COc1ccc2c3c1O[C@H]1C[C@@H](OC(=O)NCc4ccc(C#N)cc4)C=C[C@@]31CCN(C)C2`, for which the inhibition at Cholinesterase turned out to be 2.57%.

The molecule `COc1ccc2c3c1O[C@H]1C[C@@H](OC(=O)NCc4ccc(C(F)(F)F)cc4)C=C[C@@]31CCN(C)C2` had an inhibition on Cholinesterase of 14.9%.
